This note sets out measurements from patent US20220211858A1, “TUBULAR SUPRAMOLECULAR POLYMERS” (priority 2019, published 2022).

Series [1] can be described thus: Drug release from TT 1 nanotubes with or without GSH. It counts as physicochemical. To be noted: 200 μM. The procedure: The release of free CPT from TT 1 nanotubes was evaluated in the presence or absence of GSH. Stock solutions of 400 μM of TT 1 in deionized water were prepared and diluted to 200 μM with 20 mM PBS buffer with or without GSH (20 mM). Three replicate experiments were prepared together for both conditions. The solutions were incubated at 37° C. and samples were collected at 0 min, 10 min, 20 min, 30 min, 1 h, 2 h, 4 h, 6 h, 8 h, 12 h and 24 h. For each collected sample, the reductive release was halted by acidification of the solution through the addition of 0.2 μL of 2M HCl. Samples were then frozen with liquid nitrogen and stored at −30° C. until analysis. The amount of released CPT was monitored by RP-HPLC using the following conditions: Varian Pursuit XRs C18 (5 μm, 150×4.6 mm); 362 nm detection wavelength; 1 ml/min flow rate; the gradient began at 90% of mobile phase A (0.1% aqueous TFA) and 10% of mobile phase B (acetonitrile containing 0.1% TFA) increasing to 90% mobile phase B by 15 min and held for another 1 min before decreasing to the initial solvent composition at 20 minutes. Selected time points were characterized and data were plotted as a percentage of the total expected CPT concentration.

Series [2] can be described thus: Physical stability of TT 1 nanotubes upon dilution in cell medium (CD). The series is classed as physicochemical. The procedure: The stability of non-ionic TT 1 nanotubes upon dilution in cell medium was evaluated by recording the CD spectrum for a series of prepared dilutions. […] A stock solution of TT 1 nanotube was prepared at a concentration of 1 mM in water and aged overnight. The aged solution was then diluted to 200 μM with cell medium. Further dilutions of the 200 μM TT 1 nanotube in cell medium were prepared at 100 μM, 50 μM, 25 μM, 10 μM, and 5 μM concentration. All diluted solutions were incubated for an additional two days before CD measurements were made. All the CD spectra were recorded from 300 to 440 nm using a 1 mm (for 200 μM, 100 μM, and 50 μM) or 10 mm (for 25 μM, 10 μM, and 5 μM) path length quartz cell. The spectra were collected and normalized from ellipticity (mdeg) to molar ellipticity (deg·cm^2·dmol^−1).

Series [3] relates to human glioblastoma U87 MG cells. Nature of the series: Antitumor efficacy study for systemic delivery, subcutaneous U87 MG tumor. It counts as in vivo, athymic nude mice. The note with it: for mean tumor volume: three weeks after treatment. The procedure:
A total of 2×10^6 human glioblastoma U87 MG cells were subcutaneously injected into the right shoulder of athymic nude mice (8-9 weeks old). The mice were used for the efficacy study after three to four weeks when the tumor had reached about 190-250 mm^3 in size. […]. Water insoluble free CPT was dissolved/suspended in a mixture of DMSO/ethanol/PEG-400/water (1:1:2:1). CPT (4.5 mg/kg) and irinotecan (60 mg/kg) were administered by intraperitoneal injection, while freshly prepared TT 1 solutions of various doses were administered intravenously by tail vein injection every 4 days for a total of three doses (days 1, 5, and 9). […]. Tumor volumes were measured and recorded every other day. The body weights were measured and recorded every day or every other day. The tumor volume was determined by measuring the tumor in two dimensions with calipers and using the formula “tumor volume=(length×width^2)/2”. Each animal was euthanized once the tumor volume reached the predetermined end point size of 2000 mm^3.

A short description of series [4]: Maximum tolerated dose (MTD) dose escalation study. More on the design: species or system athymic nude mice. To be noted: female, athymic nude, mouse, in vivo, intravenous, three doses, four days a dose; ½ of single-injection MTD; read-out: MTD of multiple injections.

Entries after “also recorded” stand apart in the source; their conditions may differ.

By MTD is commonly meant the largest dose that counted as tolerated. As to `CC[C@]1(OC(=O)OCCSSC[C@@H](NC(C)=O)C(=O)N[C@@H](CCCCNC(=O)[C@@H](CSSCCOC(=O)O[C@]2(CC)C(=O)OCc3c2cc2n(c3=O)Cc3cc4ccccc4nc3-2)NC(C)=O)C(=O)N[C@@H](CCCCNC(=O)CCOCCOCCOCCOCCOC)C(=O)N[C@@H](CCCCNC(=O)CCOCCOCCOCCOCCOC)C(N)=O)C(=O)OCc2c1cc1n(c2=O)Cc2cc3ccccc3nc2-1` [TT 1], the “conjugated CPT released” value in series [1] (10 mM GSH, 37° C., by 6 h) is roughly 100%. The “conjugates degraded (hydrolysis)” value in series [1] (without GSH, 24 h) is recorded as “less than 10%”. Further, in series [2] (after one week), the “appearance of solution in cell medium” value is given as “remained clear after one week; also recorded: remains clear after a week”. For the same molecule, the “change of CD signal upon dilution” value in series [2] (cell medium with 10% FBS, 10 and 5 μM) was “slight decreases in intensity; also recorded: slight decrease of CD signal at 389 nm”. Besides, the “dissociation of nanotubes upon dilution (CD)” value in series [2] (cell medium with 10% FBS, concentrations above 25 μM, two days) was “no obvious disassociation; also recorded: minimum dissociation or aggregation”. Besides, the median survival in series [3] (TT 1 4.5 mg/kg (CPT equivalent) i.v. days 1, 5, 9) was determined as 23 days; in series [3] (TT 1 9 mg/kg i.v. days 1, 5, 9), 37 days; in series [3] (TT 1 15 mg/kg i.v. days 1, 5, 9), 43 days. This molecule yielded a tumor volume in series [3] (TT 1 4.5 mg/kg, up to 15 days) of 417 mm^3. Moreover, the “survival of four out of five mice” value in series [3] (TT 1 9 mg/kg) is “up to 37 d”; in series [3] (TT 1 15 mg/kg), no more than 43 days. The figures for the mean tumor volume in series [3] (TT 1 9 mg/kg) and in series [3] (TT 1 15 mg/kg) were 94 mm^3 and 59 mm^3, respectively. The MTD in series [4] is 12 mg/kg.
